{"source": "PubChem BioAssay AID1963977", "about": "(Molecular Pharmacology Branch, DTP, NCI, 2024)", "system": "624824-186-R-J3-PDC multicell spheroids, viability", "assay": "Anticancer human tumor 624824-186-R-J3-PDC patient-derived colon adenocarcinoma cell line growth inhibition [PI3K]", "conditions": "for IC50: curve of first compound; for viability, T/C: stronger effect = lower value", "method_in_brief": "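We assembled tumor spheroids that included a stromal compartment of HUVEC and MSCs, then exposed them to targeted agents alone and together with PI3K pathway inhibitors. Concentration series descended by half-log from clinically achievable Cmax levels. Viability served as the endpoint.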"}
{"compound": "Cn1cnc2c(F)c(Nc3ccc(Br)cc3Cl)c(C(=O)NOCCO)cc21", "note": "+ Cc1nc(NC(=O)N2CCCC2C(N)=O)sc1-c1ccnc(C(C)(C)C(F)(F)F)c1;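 further: spheroids exposed to agents for seven days before luminescence read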;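 on viability, T/C: luminescent signal used as a stand-in for spheroid viability; percent viability relative to DMSO vehicle control wells taken as 100%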", "values": [{"measurement": "IC50", "setting": "second compound 0.0316 µM", "result": 1890, "unit": "nM"}, {"measurement": "IC50", "setting": "second compound 0.1 µM", "result": 884, "unit": "nM"}, {"measurement": "IC50", "setting": "second compound 0.316 µM", "result": 515, "unit": "nM"}, {"measurement": "IC50", "setting": "second compound 1 µM", "result": 207, "unit": "nM"}, {"measurement": "IC50", "setting": "second compound 3.16 µM", "result": 48.4, "unit": "nM"}, {"measurement": "IC50", "setting": "second compound 10 µM", "result": 14.9, "unit": "nM"}, {"measurement": "viability, T/C", "setting": "second compound 0.0316 µM, first compound 0.00949 µM", "result": 116, "unit": "%"}, {"measurement": "viability, T/C", "setting": "second compound 0.0316 µM, first compound 0.03 µM", "result": 104, "unit": "%"}, {"measurement": "viability, T/C", "setting": "second compound 0.0316 µM, first compound 0.0949 µM", "result": 89, "unit": "%"}, {"measurement": "viability, T/C", "setting": "second compound 0.0316 µM, first compound 0.3 µM", "result": 82.1, "unit": "%"}, {"measurement": "viability, T/C", "setting": "second compound 0.0316 µM, first compound 0.949 µM", "result": 62.8, "unit": "%"}, {"measurement": "viability, T/C", "setting": "second compound 0.0316 µM, first compound 3 µM", "result": 40.5, "unit": "%"}, {"measurement": "viability, T/C", "setting": "second compound 0.1 µM, first compound 0.00949 µM", "result": 105, "unit": "%"}, {"measurement": "viability, T/C", "setting": "second compound 0.1 µM, first compound 0.03 µM", "result": 98.1, "unit": "%"}, {"measurement": "viability, T/C", "setting": "second compound 0.1 µM, first compound 0.0949 µM", "result": 94.6, "unit": "%"}, {"measurement": "viability, T/C", "setting": "second compound 0.1 µM, first compound 0.3 µM", "result": 68, "unit": "%"}, {"measurement": "viability, T/C", "setting": "second compound 0.1 µM, first compound 0.949 µM", "result": 50.9, "unit": "%"}, {"measurement": "viability, T/C", "setting": "second compound 0.1 µM, first compound 3 µM", "result": 31.6, "unit": "%"}, {"measurement": "viability, T/C", "setting": "second compound 0.316 µM, first compound 0.00949 µM", "result": 114, "unit": "%"}, {"measurement": "viability, T/C", "setting": "second compound 0.316 µM, first compound 0.03 µM", "result": 98.2, "unit": "%"}, {"measurement": "viability, T/C", "setting": "second compound 0.316 µM, first compound 0.0949 µM", "result": 85.5, "unit": "%"}, {"measurement": "viability, T/C", "setting": "second compound 0.316 µM, first compound 0.3 µM", "result": 59.9, "unit": "%"}, {"measurement": "viability, T/C", "setting": "second compound 0.316 µM, first compound 0.949 µM", "result": 37.7, "unit": "%"}, {"measurement": "viability, T/C", "setting": "second compound 0.316 µM, first compound 3 µM", "result": 22.4, "unit": "%"}, {"measurement": "viability, T/C", "setting": "second compound 1 µM, first compound 0.00949 µM", "result": 97.3, "unit": "%"}, {"measurement": "viability, T/C", "setting": "second compound 1 µM, first compound 0.03 µM", "result": 91.5, "unit": "%"}, {"measurement": "viability, T/C", "setting": "second compound 1 µM, first compound 0.0949 µM", "result": 67.7, "unit": "%"}, {"measurement": "viability, T/C", "setting": "second compound 1 µM, first compound 0.3 µM", "result": 40.1, "unit": "%"}, {"measurement": "viability, T/C", "setting": "second compound 1 µM, first compound 0.949 µM", "result": 24.9, "unit": "%"}, {"measurement": "viability, T/C", "setting": "second compound 1 µM, first compound 3 µM", "result": 12.5, "unit": "%"}, {"measurement": "viability, T/C", "setting": "second compound 3.16 µM, first compound 0.00949 µM", "result": 73.8, "unit": "%"}, {"measurement": "viability, T/C", "setting": "second compound 3.16 µM, first compound 0.03 µM", "result": 60.4, "unit": "%"}, {"measurement": "viability, T/C", "setting": "second compound 3.16 µM, first compound 0.0949 µM", "result": 36.2, "unit": "%"}, {"measurement": "viability, T/C", "setting": "second compound 3.16 µM, first compound 0.3 µM", "result": 22.6, "unit": "%"}, {"measurement": "viability, T/C", "setting": "second compound 3.16 µM, first compound 0.949 µM", "result": 17.3, "unit": "%"}, {"measurement": "viability, T/C", "setting": "second compound 3.16 µM, first compound 3 µM", "result": 6.56, "unit": "%"}, {"measurement": "viability, T/C", "setting": "second compound 10 µM, first compound 0.00949 µM", "result": 56, "unit": "%"}, {"measurement": "viability, T/C", "setting": "second compound 10 µM, first compound 0.03 µM", "result": 42.2, "unit": "%"}, {"measurement": "viability, T/C", "setting": "second compound 10 µM, first compound 0.0949 µM", "result": 21.4, "unit": "%"}, {"measurement": "viability, T/C", "setting": "second compound 10 µM, first compound 0.3 µM", "result": 16, "unit": "%"}, {"measurement": "viability, T/C", "setting": "second compound 10 µM, first compound 0.949 µM", "result": 5.42, "unit": "%"}, {"measurement": "viability, T/C", "setting": "second compound 10 µM, first compound 3 µM", "result": 1.91, "unit": "%"}]}
